Experiments:
[1] = tested on: Collagen I, collagen III, KGF gene expression in Hs-68 cells; test: Real-time PCR of collagen I, collagen III, KGF in Hs-68 cells; format: cell-based, human; conditions: TP4 6.25 μg/ml, 48 h, vs controls
Protocol: In FIG. 5A-5C, Hs-68 cells were treated with different doses of TP4 for 48 h, and cell viability was measured by neutral red, LDH, and MTT assays. (r=3; n=6.) In FIG. 5D-5F, the experimental Hs-68 cells were treated with TP4 ([…]), while control cells were untreated. After 48 h, total RNA was isolated and reverse transcribed for use in real-time qPCR analysis. Six replicate wells were analyzed per assay. Results represent the mean±SEM from three independent experiments. (Student's t-test: *, P<0.05; **, P<0.01; n.s.: not significant).
Total RNA was isolated from HaCaT and Hs-68 cells, and purified using a Qiagen RNeasy kit. Reverse transcription into cDNA was performed with an iScript cDNA Synthesis Kit (BIO-RAD, USA) according to the manufacturer's recommendations. Real-time polymerase chain reaction (PCR) was performed to analyze gene expression, using […] of cDNA, 2× iQSYBR® Green Supermix (BIO-RAD, USA), and 500 nM of forward and reverse primers against selected genes or GAPDH (reference gene), according to the instructions of the manufacturer. Quantitative PCR was performed under the following conditions: 40 cycles of 1 min at 95° C., 30 s at 55° C., and 1 min at 72° C. The threshold cycle number (Ct) was calculated with BIO-RAD software. Relative transcript quantities were calculated using the ΔCt method with GAPDH as the internal reference gene. ΔCt is the difference in the threshold cycles of messenger (m)RNA for selected genes relative to those of GAPDH mRNA. Real-time PCR was performed in triplicate for each experimental group.

[2] = tested on: Keratin 10, keratin 17 gene expression in HaCaT cells; test: Real-time PCR of keratin 10 and keratin 17 in HaCaT cells; format: cell-based, human; conditions: TP4 6.25 μg/ml, 48 h
Protocol: In FIG. 6A-6C, HaCaT cells were treated with different doses of TP4 for 48 h, and cell viability was measured by neutral red, LDH, and MTT assays (r=3; n=6). In FIGS. 6D and 6E, thee experimental HaCaT cells were treated with TP4 (6.25 μg/ml), while control cells were untreated. After 48 h, total RNA was isolated and reverse transcribed for use in real-time qPCR analysis. Six replicate wells were analyzed per assay. Results represent the mean±SEM from three independent experiments. (Student's t-test: *, P<0.05; **, P<0.01, n.s.: not significant).
Total RNA was isolated from HaCaT and Hs-68 cells, and purified using a Qiagen RNeasy kit. Reverse transcription into cDNA was performed with an iScript cDNA Synthesis Kit (BIO-RAD, USA) according to the manufacturer's recommendations. […] Quantitative PCR was performed under the following conditions: 40 cycles of 1 min at 95° C., 30 s at 55° C., and 1 min at 72° C. The threshold cycle number (Ct) was calculated with BIO-RAD software. Relative transcript quantities were calculated using the ΔCt method with GAPDH as the internal reference gene. ΔCt is the difference in the threshold cycles of messenger (m)RNA for selected genes relative to those of GAPDH mRNA. […]

MRSA = test: Mouse wound healing model, wound closure, TP4; format: in vivo, Balb/c mice; conditions: MRSA-contaminated full-thickness wounds
Protocol: Female Balb/c mice (6-8 weeks old) were used for wound healing experiments. All mice were housed individually to prevent fighting and further damage to the wounds, and they were provided with food and water ad libitum. Mice were maintained on a 12 h light: dark cycle at room temperature, and acclimatized to the environment for at least a week before use in experiments. All researchers wore caps, sterile gloves, gowns, and shoe covers when handling mice. Hair was removed from the back of the mice by shaving, and a full thickness wound (1 cm in diameter) was then created in the exposed region. Each wound was inoculated with 50 μl of broth mix containing 10^6 cfu (colony forming units) of S. aureus. At 5 min after inoculation, 50 μl TP4 (2 mg/ml) in a total volume of 0.1 ml were applied. […] Animals were subsequently euthanized by CO2 inhalation and the wounds assessed. […] Each wound was measured and then removed from the animal, with unwounded skin taken from the contralateral dorsum as a control. Each biopsy was divided into six sections, with three sections being used for tensiometry and histology, and three sections for quantitative determination of microbial load. […]
Tracings were taken immediately after injury. For uncontaminated wounds, wound size was determined every second day. […] Wound areas were determined using the Macintosh Adobe Photoshop program, Histogram Analysis. […]

TNF, IL-6, IL-1 = test: ELISA of serum cytokines in MRSA wound-infected mice, TP4; format: in vivo
Protocol: A skin region of about 1 square centimeter was removed from the abdomen of […] mice, and the wound was infected with […] of broth mix containing 10^6 cfu of MRSA alone, or together with methicillin, vancomycin, or TP4. At different days post-infection: TNF (FIG. 9A), IL-6 (FIG. 9B), and IL-1 (FIG. 9C) were detected in serum by ELISA. (r=3; n=6.) Values with different letters show significant differences (P<0.05), as determined by ANOVA.
(§1) Skin tissues were removed and fixed as previously described. In brief, the cryosections were fixed with 4% formaldehyde, and the tissue samples were stained with VEGF. IHC was analyzed by three independent investigators. Images were taken using a BX-51 microscope (Olympus, Japan). ELISA was performed as previously described.

[3] = tested on: EGF, TGF-β, VEGF gene expression; test: Real-time PCR of cell proliferation genes and histology of infected wounds, TP4; format: in vivo, mice
Description: Adult mice were infected with MRSA, and treated with TP4 or antibiotics, while controls were infected but untreated. On the indicated days, total RNA was isolated from the wound and reverse transcribed for use in real-time qPCR analysis of EGF (FIG. 10A), TGF-β (FIG. 10B), and VEGF (FIG. 10C) gene expression. (r=3; n=6.) Values with different letters show significant differences (P<0.05), as determined by ANOVA.
Tracings were taken immediately after injury. For uncontaminated wounds, wound size was determined every second day. For contaminated wounds, mice were euthanized at days 3, 5, or 19, and tracings of the wound edges were made. Wound areas were determined using the Macintosh Adobe Photoshop program, Histogram Analysis. The percentage of wound contraction was calculated as follows: % Wound contraction=(A0−At)/A0×100, where A0 is the original wound area, and at is the area of wound at the time of biopsy, accordingly. Cell proliferation gene expression was performed by real-time PCR, using the methods described above.
as §1

[4] = serum, 3 days after treatment, vs positive controls

## Tilapia piscidin 4 (FIHHIIGGLFSAGKAIHRLIRRRRR; listed as Oreochromis niloticus) [TP4]
[1]
  Collagen I gene expression: enhanced
  Collagen III gene expression: enhanced
  KGF gene expression: enhanced
[2]
  gene expression of keratin 10: significantly increased
  gene expression of keratin 17: did not affect
MRSA
  day of wound closure: 21 days
  wound closure: wound closure was accelerated
TNF, IL-6, IL-1; TP4-treated wounds vs control wounds
  IL-1: statistically significant enhancement
TNF, IL-6, IL-1; [4]
  induction of IL-6: decreased induction
  induction of TNF: decreased induction
[3]; TP4-treated wounds
  epidermal regeneration, histological examination of biopsies: complete and architecturally normal epidermal regeneration
[3]; wound tissue, 3 days, vs control and vancomycin-treated mice
  gene expression of EGF: enhanced gene expression
[3]; wound tissue, 7 days, vs control and vancomycin-treated mice
  gene expression of TGF: enhanced gene expression
[3]; wound tissue, 14 days, vs control and vancomycin-treated mice
  gene expression of VEGF: enhanced gene expression
